In ChEMBL document CHEMBL1201862, “PubChem BioAssay data set” (2004):
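Interpolation was linear, between the two tested concentrations surrounding the appropriate level; five concentrations were tested over 48 hours in 96-well plates. The concentration for 50% growth inhibition is given as GI50.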 The source made the active and inactive calls. Rule as the data show it: active = GI50 up to about 1.1 µM and inactive = higher.

Tests used:
Test in all cases: NCI-60 cell line screen, 48 h
IGROV-1 = system: IGROV-1
HL-60 = system: HL-60
SK-MEL-5 = system: SK-MEL-5
SR = system: SR
BT-549 = system: BT-549
RPMI-8226 = system: RPMI-8226
SF-268 = system: SF-268
ACHN = system: ACHN
K562 = system: K562
HOP-92 = system: HOP-92
SK-OV-3 = system: SK-OV-3
OVCAR-5 = system: OVCAR-5
SK-MEL-2 = system: SK-MEL-2
PC-3 = system: PC-3
OVCAR-4 = system: OVCAR-4
DU-145 = system: DU-145
HCT-15 = system: HCT-15
SNB-19 = system: SNB-19
M14 = system: M14
COLO 205 = system: COLO 205
U-251 = system: U-251
A498 = system: A498
MDA-MB-435 = system: MDA-MB-435
NCI-H23 = system: NCI-H23
KM12 = system: KM12
NCI/ADR-RES = system: NCI/ADR-RES
HCC 2998 = system: HCC 2998
NCI-H460 = system: NCI-H460
SF-295 = system: SF-295
SNB-75 = system: SNB-75
HOP-62 = system: HOP-62
OVCAR-3 = system: OVCAR-3
NCI-H226 = system: NCI-H226
UACC-62 = system: UACC-62
Malme-3M = system: Malme-3M
CAKI-1 = system: CAKI-1
T47D = system: T47D
SW-620 = system: SW-620
RXF 393 = system: RXF 393
786-0 = system: 786-0
EKVX = system: EKVX
MDA-MB-231 = system: MDA-MB-231
SN12C = system: SN12C
LOX IMVI = system: LOX IMVI
Hs-578T = system: Hs-578T
SF-539 = system: SF-539
SK-MEL-28 = system: SK-MEL-28
UACC-257 = system: UACC-257
A549 = system: A549
HCT-116 = system: HCT-116
MOLT-4 = system: MOLT-4
UO-31 = system: UO-31
NCI-H522 = system: NCI-H522
CCRF-CEM = system: CCRF-CEM
HT-29 = system: HT-29
MCF7 = system: MCF7
OVCAR-8 = system: OVCAR-8
MDA-N = system: MDA-N
TK-10 = system: TK-10

Measured: GI50

Oc1cccc2cccnc12
inactive: IGROV-1 4.27 µM | SK-MEL-5 4.86 µM | BT-549 61.1 µM
active: HL-60 0.294 µM | SR 0.342 µM | RPMI-8226 0.918 µM

Cc1cccc(NC(=S)N/N=C2\C(=O)Nc3ccccc32)c1
73.8 µM: HCT-15
inactive: SF-268 4.98 µM | IGROV-1 49.3 µM | ACHN 43.1 µM | K562 65.8 µM | HL-60 67.8 µM | HOP-92 > 100 µM | SK-OV-3 > 100 µM | OVCAR-5 > 100 µM | SK-MEL-2 70.6 µM | PC-3 68.4 µM | SK-MEL-5 23.3 µM | OVCAR-4 34.9 µM | DU-145 14.1 µM | SNB-19 > 100 µM | M14 60.8 µM | COLO 205 78.3 µM | U-251 61.8 µM | A498 29.7 µM | MDA-MB-435 80.4 µM | NCI-H23 > 100 µM | KM12 39 µM | NCI/ADR-RES 29.9 µM | HCC 2998 > 100 µM | NCI-H460 48.3 µM | SF-295 56.9 µM | SNB-75 63.1 µM | HOP-62 62.7 µM | OVCAR-3 32.3 µM | NCI-H226 > 100 µM | UACC-62 > 100 µM | Malme-3M 66.1 µM | CAKI-1 38.2 µM | T47D > 100 µM | SW-620 > 100 µM | RXF 393 30.1 µM | 786-0 59.4 µM | EKVX 31.3 µM | SR 70.3 µM | MDA-MB-231 > 100 µM | SN12C 91.4 µM | LOX IMVI 51.4 µM | Hs-578T > 100 µM | SF-539 48.3 µM | SK-MEL-28 16.1 µM | UACC-257 > 100 µM | A549 59.4 µM | HCT-116 44.9 µM | MOLT-4 59 µM | UO-31 63.2 µM | NCI-H522 > 100 µM | RPMI-8226 > 100 µM | CCRF-CEM 55 µM | HT-29 > 100 µM | MCF7 > 100 µM | OVCAR-8 > 100 µM | MDA-N > 100 µM

Cc1c(/N=N/c2ccc(Cl)cc2)c(C)n(C2OC(CO)C(O)C(O)C2O)c(=S)c1C#N (centres undefined)
inactive: SF-268 16 µM | IGROV-1 15.1 µM | ACHN 19.6 µM | K562 16.7 µM | HL-60 22.1 µM | HOP-92 31.5 µM | SK-OV-3 37.4 µM | OVCAR-5 30.5 µM | SK-MEL-2 14.7 µM | PC-3 23.4 µM | SK-MEL-5 8.45 µM | OVCAR-4 16.5 µM | DU-145 20.5 µM | SNB-19 > 100 µM | M14 20 µM | COLO 205 19.3 µM | U-251 18.2 µM | MDA-MB-435 20.2 µM | NCI-H23 30 µM | KM12 24.8 µM | NCI/ADR-RES 19 µM | HCC 2998 23.7 µM | NCI-H460 25.8 µM | SF-295 31.8 µM | SNB-75 28 µM | HOP-62 18.1 µM | OVCAR-3 12.8 µM | TK-10 28.6 µM | NCI-H226 25.3 µM | UACC-62 3.25 µM | Malme-3M 22.5 µM | CAKI-1 64.1 µM | T47D 32.7 µM | SW-620 > 100 µM | RXF 393 31.1 µM | 786-0 18.5 µM | EKVX 21.8 µM | MDA-MB-231 18.4 µM | SN12C 15.5 µM | LOX IMVI 17.3 µM | Hs-578T 10.7 µM | SF-539 20.4 µM | SK-MEL-28 23.4 µM | UACC-257 24.2 µM | A549 22 µM | HCT-116 15.1 µM | MOLT-4 13.9 µM | UO-31 23.4 µM | NCI-H522 20 µM | RPMI-8226 16.4 µM | CCRF-CEM 18.5 µM | HT-29 32.7 µM | MCF7 28.6 µM | OVCAR-8 30.1 µM | MDA-N 21.6 µM
23.8 µM: HCT-15
